Assay results taken from article PMC11018795, “The regulatory relationship between NAMPT and PD-L1 in cancer and identification of a dual-targeting inhibitor” (EMBO Molecular Medicine, 2024).
“And” between values parts separate entries of the source, which are not always exact repeats. Identical values can stand only once.

How the values were obtained:
[1] = system: lung cancer organoids derived from lung cancer patients; assay: Patient-derived lung cancer organoid viability; type: cell-based, human; conditions: 100 nM; 9 days
Experimental: Human lung cancer samples were obtained from Shengjing Hospital of China Medical University (IRB No. 2023PS1105K). The establishment of lung cancer patient-derived organoids was performed as described ([…] et al, [2019]). Organoids were seeded into 96-well plates and treated with the corresponding compounds for 9 days, and cell viability was determined by CellTiter Glo 3D cell viability assay (Promega, G9683).

H1299 cells = assay: MTT assay 48 h, H1299; type: cell-based, human; conditions: 1299
Experimental: (§1) Cells (5 × 10^3/well) were seeded into a 96-well plate and cultured at 37 °C in a 5% CO2 incubator. […] At the final time point, 10 μl MTT solution (5 mg/ml, Sigma, Burlington, MA, USA) was added to each well and incubated for an additional 4 h at 37 °C in a 5% CO2 incubator. Then,100 μl of DMSO was added to each well and mixed thoroughly. Optical density was measured at 492 nm using a microplate reader (Molecular Devices, San Jose, CA, USA).

PD-L1 = biological target: T1, PD-L1 (Homo sapiens, UniProt Q9NZQ7); assay: Cellular thermal shift assay (CETSA), PD-L1, A2780 cells; type: binding; conditions: for Relative band intensity (PD-L1): LZFPN-90 20 nM
T1 construct: endogenous in cells; host or cells: A2780
Experimental: The cells were resuspended in 1× PBS supplemented with protease inhibitors (Roche) and then divided into strip tubes for 30 min. The tubes were centrifuged at 15,000× g at 4 °C for 15 min. After centrifugation, the supernatant was divided into DMSO and LZFPN-90 (20 nM) groups, and incubated at room temperature for 30 min. According to standard procedures (38 °C, 42 °C, 46 °C, 50 °C, 54 °C, 58 °C, 62 °C, 66 °C), each temperature group was heated for 3 min, incubated at room temperature for 3 min. Then centrifuged at 20,000× g for 25 min, the supernatant was collected, 1× loading buffer was added, the mixture was heated in a metal bath at 95 °C for 10 min, and the amount of non-denatured protein per sample was quantified by western blotting.

A2780 cells [2] = assay: Clonogenic assay, A2780; type: cell-based, human; conditions: 9 days
Experimental: Cells (3 × 10^2/well) were plated in a six-well plate and the culture medium was replaced every 2 days. After culturing for 7–10 d, the cells were fixed with 4% paraformaldehyde for 15 min, stained with 0.1% crystal violet for 30 min, and imaged and counted.

[3] = system: LLC OE N/P cells co-cultured with T cells; assay: T cell-mediated tumor cell killing assay, LLC OE N/P; type: cell-based; conditions: Mus musculus, 100 nM, read-out: inhibition rate (T cell-mediated killing)
Experimental: To acquire activated T cells, human peripheral blood mononuclear cells (PBMC; LTS1077, Yanjin Biological) were cultured in CTSTM AIIM VTM SFM (A3021002; Gibco) with ImmunoCult Human CD3/CD28/CD2 T-cell activator (25 µL/mL; […] Technologies, Cat#10970) for 48 h according to the manufacturer’s protocol. The experiments were performed using mouse anti-CD3 antibody (1 µg/mL; Thermo Scientific, 16-0032-82) and anti-CD28 antibody(5 µg/mL; Thermo Scientific, 16-0281-82). Cancer cells were allowed to adhere to the plates overnight and then incubated for 48 h with activated T cells in the presence or absence of DX ([…]). Different proportions of cancer cells and activated T cells were utilized according to the purpose of each experiment. The T-cell proliferation assay was 1:3; the T-cell killing assay was 1:10; T cells and cell debris were removed by PBS washing, and the living cancer cells were then quantified by a spectrometer at OD (570 nm) followed by crystal violet staining. page 12: Fig 3: […] expression patterns. […] Data was obtained from the TCGA database. (B) T cell-mediated tumor cell killing assay. T cells were co-cultured with LLC Vector, […] CQ-85, or BMS202. […] stained by crystal violet. The relative added value of activated T cells is shown below. Data are presented as mean ± SEM; *P < 0.05, **P < 0.01, ***P < 0.001, compared with control. n.s., not significant. […]

A2780 cells [4] = assay: Apoptosis assay (Annexin V/PI), A2780; type: cell-based, human
Experimental: (§2) The cells are treated with the compounds. After 48–72 h, the cells were harvested and washed twice with cold PBS. The cells were then stained with Annexin V/propidium iodide (PI) (BD Biosciences) and examined using a NovoCyte Flow Cytometer (ACEA Biosciences). Data were analyzed using NovoExpress software (ACEA Biosciences).

A20 tumors = assay: A20 tumor-bearing Balb/c nude mice; type: in vivo, mouse; conditions: 20 mg/kg i.p., Fig 6E
Experimental: The 4–6 weeks-old Balb/c mice and Balb/c nude mice were maintained in a specific pathogen-free (SPF) facility. A20 cells (5 × 10^6 cells in 0.2 ml phosphate-buffered saline) were subcutaneously injected into the right armpit of Balb/c mice and Balb/c nude mice. Tumor volume was measured using calipers every 2 days and calculated using the following formula: (long diameter) × (short diameter)^2/2. […] Balb/c nude mice were treated with LZFPN-90 (20 mg/kg). After 12 days of administration, the animals were anesthetized, and tumors were excised. Some fresh tumor tissues were subjected to immune cell isolation. Tissues were either fixed in 4% formalin or stored at −80 °C until further analysis.

HCT-116 cells = assay: Apoptosis assay (Annexin V/PI), HCT-116; type: cell-based, human; conditions: HCT116
Experimental: as §2

MKN74 cells = assay: MTT assay 48 h, MKN74; type: cell-based, human
Experimental: as §1

T1 sequence (Q9NZQ7 19-290): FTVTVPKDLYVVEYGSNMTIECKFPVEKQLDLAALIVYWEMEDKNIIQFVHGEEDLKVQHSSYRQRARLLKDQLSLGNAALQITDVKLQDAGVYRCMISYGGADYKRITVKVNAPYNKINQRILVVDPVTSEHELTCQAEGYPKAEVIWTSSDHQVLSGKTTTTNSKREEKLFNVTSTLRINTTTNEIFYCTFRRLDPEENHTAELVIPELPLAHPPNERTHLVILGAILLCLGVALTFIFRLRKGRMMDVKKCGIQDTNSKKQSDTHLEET

## CCN(CC)CCCOc1cccc(-c2cccc3c2CCN3C(=O)c2ncc(CNC(=NC#N)Nc3ccncc3)s2)c1 [LZFPN-90]
[1]
  survival of lung cancer organoids: the survival of the organoids was decreased significantly
H1299 cells
  Relative inhibition (敏感性): 0.02
PD-L1; LZFPN-90 20 nM vs blank group
  thermal stability of PD-L1: the stability of NAMPT and PD-L1 increased
PD-L1; 38 ℃
  Relative band intensity (PD-L1): 0.8 and 0.83
PD-L1; 42 ℃
  Relative band intensity (PD-L1): 0.79 and 0.8
PD-L1; 46 ℃
  Relative band intensity (PD-L1): 0.86 and 0.82
PD-L1; 50 ℃
  Relative band intensity (PD-L1): 0.7 and 0.76
PD-L1; 54 ℃
  Relative band intensity (PD-L1): 0.56 and 0.61
PD-L1; 58 ℃
  Relative band intensity (PD-L1): 1 and 1.07
PD-L1; 62 ℃
  Relative band intensity (PD-L1): 0.96 and 0.92
PD-L1; 66 ℃
  Relative band intensity (PD-L1): 0.36 and 0.31
A2780 cells [2]; LZ90-H (2 nM)
  Colony formation relative to Ctrl: 0.01
A2780 cells [2]; LZ90-L (0.5 nM), Ctrl = 1
  Colony formation relative to Ctrl: 0.64
A2780 cells [2]; LZ90-M (1 nM)
  Colony formation relative to Ctrl: 0.11
[3]
  inhibition at 0.1 µM: ~80%
A2780 cells [4]; LZ90 15 nM
  Apoptotic cells (sum of both Annexin-positive quadrants): 5.88 and 5.86 and 5.93
A2780 cells [4]; LZ90 60 nM
  Apoptotic cells (sum of both Annexin-positive quadrants): 12.2 and 12.06 and 12.87
A2780 cells [4]; LZ90 240 nM
  Apoptotic cells (sum of both Annexin-positive quadrants): 48.53 and 48.13 and 46.72
A20 tumors
  TIR (relative tumor weight): 46.2%
HCT-116 cells; LZ90 15 nM
  Apoptotic cells (sum of both Annexin-positive quadrants): 9.8 and 11.59 and 10.81
HCT-116 cells; LZ90 60 nM
  Apoptotic cells (sum of both Annexin-positive quadrants): 14.57 and 17.94 and 17.19
HCT-116 cells; LZ90 240 nM
  Apoptotic cells (sum of both Annexin-positive quadrants): 13.96 and 15.34 and 15.58
MKN74 cells
  Relative inhibition (敏感性): 0.79
